# Measured values: patent US6413948B1, “Pharmaceutical compositions and methods of effecting a neuronal activity in an animal using naaladase inhibitors” (Guilford Pharmaceuticals Inc., priority 1996, dated 2002)
# Tested on: rats which had sustained dynorphin-induced spinal cord injury
# Experiment: In vivo assay on dynorphin-induced spinal cord injury
# Parameters: species or system Sprague-Dawley rats
# Method: Dynorphin-induced spinal cord injury was performed according to Long et al., JPET, Vol. 269, No. 1, pp. 358-366 (1993). In brief, spinal subarachnoid injections were delivered using 30-gauge needles inserted between the L4-L5 vertebrae of male Sprague-Dawley rats (300-350 g). The rats were anesthetized with halothane and dorsal midline incisions were made immediately rostral to the pelvic girdle. By using the vertebral processes as guides, the needle was advanced to pass into the subarachnoid space surrounding the cauda equina. Correct needle pement was verified by CSF from the needle after its insertion. […] After injections, the incisions were treated with the topical antibacterial furazolidone and closed with wound clips. […]
# Neurological function was evaluated using a 5-point ordinal scale, with scores being assigned as follows: 4=normal motor function; 3=mild paraparesis, with the ability to support weight and walk with impairment; 2=paraparesis, with the ability to make walking movements without fully supporting weight; 1=severe paraparesis, in which rats could make limited hind limb movement, but not walking movement; and 0=flaccid paralysis, with complete absence of any hind limb movement. […]
# Differences in the neurological scores among treatment groups were determined by means of the Mann-Whitney U test or the Kruskal-Wallis test.
structure (smiles),measurement,setting,value
O=C(O)CCC(CP(=O)(O)O)C(=O)O (centres unmarked) [2-(phosphonomethyl)pentanedioic acid],motor scores (in words),"co-administered with dynorphin A, 24-hour post-injection, vs vehicle, p<0.05",significant improvement in motor scores
same,rats ambulatory,"co-treated with dynorphin A, 24 hours post-injection, 15 rats",73%
